The source of these data is ChEMBL document CHEMBL1126308, “Alfred Burger Award address. A half century in medicinal chemistry with major emphasis on pain-relieving drugs and their antagonists” (1992).

Molecules are shown by their SMILES. Calls of active or inactive are those of the source. No cut-off for these calls is given here.

The species entered for experiment [1] is Mus musculus. Kind of experiment: Compound was evaluated for the hotplate analgesic activity; IA=inactive. In kind it is functional, organism-based.
Experiment [2] has as its target Mu-type opioid receptor (Mus musculus) (UniProt P42866). Kind of experiment: (§1) Compound was evaluated for the inhibition of [3H]naloxone binding to mouse brain homogenate at 1 nM in the absence of sodium. In kind it is tissue-based.
Experiment [3] shares this target. Kind of experiment: Compound was evaluated for the inhibition of [3H]-naloxone binding to mouse brain homogenate at 1 nM in the presence of 100 mM sodium. In kind it is tissue-based.
The species entered for experiment [4] is Mus musculus. As to the kind of experiment: Ratio between the ED50 values in presence and absence of sodium. In kind it is functional.
The species entered for experiment [5] is Mus musculus. Kind of experiment: Ratio between the ED50 values in presence and absence of sodium; value ranges from 4-5. In kind it is functional.
The species named for experiment [6] is Mus musculus. As to the kind of experiment: Compound was evaluated for the hotplate analgesic activity in mouse. In kind it is functional. On the set-up: unit not given here.
Experiment [7] is filed under the species Mus musculus. The description is as §1. In kind it is functional.
Experiment [8] is filed under the species Mus musculus. As to the kind of experiment: Compound was evaluated for the inhibition of [3H]naloxone binding to mouse brain homogenate at 1 nM in the presence of 100 mM sodium; ED50 = 800-1000 nM. In kind it is functional.
The test system of experiment [9] is Monkey. Kind of experiment: Analgesic activity in monkeys. In kind it is functional, Cercopithecidae.
Experiment [10] addresses Mu-type opioid receptor (Mus musculus) (UniProt P42866). Kind of experiment: Compound was evaluated for the inhibition of [3H]naloxone binding to opioid receptor mu of mouse brain homogenate at 1 nM in the absence of sodium. In kind it is tissue-based.
Experiment [11] shares this target. Kind of experiment: Compound was evaluated for the inhibition of [3H]naloxone binding to opioid receptor mu mouse brain homogenate at 1 nM in the presence of 100 mM sodium; ED50 = 40-50 nM. In kind it is tissue-based.
The species entered for experiment [12] is Mus musculus. As to the kind of experiment: Ratio between the ED50 values in presence and absence of sodium; value ranges from 2-2.5. In kind it is functional.
The species named for experiment [13] is Mus musculus. As to the kind of experiment: Compound was evaluated for the hotplate analgesic activity. In kind it is functional.
Experiment [14] deals with Mu-type opioid receptor (Rattus norvegicus) (UniProt P33535). Kind of experiment: Ratio between the ED50 values in presence and absence of sodium; value ranges from 3.8-5. In kind it is functional. Conditions: Mus musculus.
Sequence of Mu-type opioid receptor (Rattus norvegicus) (P33535 whole entry): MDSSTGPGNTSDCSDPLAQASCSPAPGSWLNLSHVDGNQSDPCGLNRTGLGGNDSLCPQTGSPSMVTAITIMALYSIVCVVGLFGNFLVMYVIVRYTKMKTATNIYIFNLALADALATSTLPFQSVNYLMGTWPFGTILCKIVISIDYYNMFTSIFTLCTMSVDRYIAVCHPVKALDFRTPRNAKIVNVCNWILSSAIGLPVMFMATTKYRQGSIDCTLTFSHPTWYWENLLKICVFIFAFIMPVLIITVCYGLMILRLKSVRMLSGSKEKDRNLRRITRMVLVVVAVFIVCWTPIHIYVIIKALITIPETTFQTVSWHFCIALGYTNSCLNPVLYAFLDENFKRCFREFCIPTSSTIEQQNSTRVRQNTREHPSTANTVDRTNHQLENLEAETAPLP
The species named for experiment [15] is Mus musculus. Kind of experiment: Compound was evaluated for the inhibition of [3H]naloxone binding to mouse brain homogenate at 1 nM in the presence of 100 mM sodium; ED50 = 1500-2000 nM. In kind it is functional.
Experiment [16] concerns Monkey. As to the kind of experiment: Physical dependence capacity (PDC) of the compound; no physical dependence capacity. In kind it is functional, organism-based. As to conditions: Cercopithecidae.
The test system of experiment [17] is Monkey. Kind of experiment: Antagonistic potency of the compound; not active. In kind it is functional, organism-based. As to conditions: Cercopithecidae.
Experiment [18] relates to Monkey. Kind of experiment: Physical dependence capacity (PDC) of the compound; intermed physical dependence capacity. In kind it is functional, organism-based. As to conditions: Cercopithecidae.
Experiment [19] addresses Mu-type opioid receptor (Mus musculus) (UniProt P42866). Kind of experiment: (§2) Compound was evaluated for the inhibition of [3H]naloxone binding to mouse brain homogenate at 1 nM in the presence of 100 mM sodium. In kind it is tissue-based.
Experiment [20] has the same target. As to the kind of experiment: Ratio between the ED50 values in presence and absence of sodium; value ranges from 7-10.
Experiment [21] shares this target. As to the kind of experiment: Compound was evaluated for the inhibition of [3H]naloxone binding to mouse brain homogenate at 1 nM in the absence of sodium; ED50 = 7-10 nM. In kind it is tissue-based.
The test system of experiment [22] is Monkey. Kind of experiment: Physical dependence capacity (PDC) of the compound; high physical dependence capacity. In kind it is functional, organism-based. As to conditions: Cercopithecidae.
Experiment [23] has as its system Monkey. As to the kind of experiment: aAntagonistic potency of the compound; not active. In kind it is functional, organism-based. Conditions: Cercopithecidae.
For experiment [24], the species on record is Mus musculus. As to the kind of experiment: Ratio between the ED50 values in presence and absence of sodium; value ranges from […]. In kind it is functional.
The species named for experiment [25] is Mus musculus. As to the kind of experiment: Compound was evaluated for the inhibition of [3H]naloxone binding to mouse brain homogenate at 1 nM in the presence of 100 mM sodium; ED50 = […] nM. In kind it is functional.
The test system of experiment [26] is Monkey. Kind of experiment: Physical dependence capacity (PDC) of the compound; very low physical dependence capacity. As to conditions: Cercopithecidae. In kind it is functional, organism-based.
In experiment [27] the test system is Monkey. As to the kind of experiment: Physical dependence capacity (PDC) of the compound; low physical dependence capacity. In kind it is functional, organism-based. As to conditions: Cercopithecidae.
For experiment [28], the species on record is Mus musculus. The experiment is described as §2. In kind it is functional.
For experiment [29], the species on record is Mus musculus. Kind of experiment: Ratio between the ED50 values in presence and absence of sodium; value ranges from 1.2-1.5. In kind it is functional.
In experiment [30] the target is Mu-type opioid receptor (Mus musculus) (UniProt P42866). As to the kind of experiment: Compound was evaluated for the inhibition of [3H]naloxone binding to opioid receptor mu of mouse brain homogenate at 1 nM in the presence of 100 mM sodium; ED50=600-700 nM. In kind it is tissue-based.
Sequence of Mu-type opioid receptor (Mus musculus) (P42866 whole entry): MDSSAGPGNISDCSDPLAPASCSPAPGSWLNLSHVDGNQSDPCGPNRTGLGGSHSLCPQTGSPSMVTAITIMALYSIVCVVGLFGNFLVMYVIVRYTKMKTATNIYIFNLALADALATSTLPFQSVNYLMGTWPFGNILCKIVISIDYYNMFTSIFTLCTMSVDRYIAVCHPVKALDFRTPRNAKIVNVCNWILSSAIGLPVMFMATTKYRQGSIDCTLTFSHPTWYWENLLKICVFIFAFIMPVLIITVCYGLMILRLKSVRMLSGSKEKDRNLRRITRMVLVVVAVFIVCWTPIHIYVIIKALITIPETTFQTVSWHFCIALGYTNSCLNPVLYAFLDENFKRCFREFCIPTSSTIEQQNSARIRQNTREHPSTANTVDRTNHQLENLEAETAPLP
[31] abbreviates: Cercopithecidae, in Primates, read-out: ED50.

On to `CCCCCCCCCN1CCC(C(=O)CC)(c2cccc(O)c2)CC1`, for which the ED50 result in the experiment listed under Mus musculus [1] is “inactive”. The ED50 in experiment [2] and in [3] was 700 nM in each case. Besides, the Ratio in the experiment listed under Mus musculus [4] was 1.
`CCCN1CCC(C(=O)CC)(c2cccc(O)c2)CC1`: the Ratio in the experiment listed under Mus musculus [5] amounted to 4. Further, the ED50 in the experiment listed under Mus musculus [6] was determined as 16; in the experiment listed under Mus musculus [7] it was 200 nM; in the experiment listed under Mus musculus [8] it was 800 nM.
`CC1C2Cc3ccc(O)cc3[C@@H]1CCN2C` (stereo in doubt; form 2) returned an ED50 with Monkey [9] of 4.3 mg/kg.
`CCCCCCCN1CCC(C(=O)CC)(c2cccc(O)c2)CC1`: the ED50 worked out at 20 nM in experiment [10], 40 nM in [11] and 9000 nM in the experiment filed under Mus musculus [13]. Also, in the experiment listed under Mus musculus [12], the Ratio amounted to 2.
Regarding `CCC(=O)C1(c2cccc(O)c2)CCN(CC)CC1`, the Ratio in [14] came to 3.8. For the same molecule, the ED50 worked out at 67.2 in the experiment filed under Mus musculus [6], 1500 nM in the experiment filed under Mus musculus [15] and 400 nM in the experiment filed under Mus musculus [7].
For the molecule `CC[C@H]1C2Cc3ccc(O)cc3[C@]1(CC)CCN2C`, the PDC result in the experiment with Monkey [16] and in the experiment on Monkey [18] was “intermed physical dependence capacity” throughout. Further, the Antagonist potency entry in the experiment with Monkey [17] is “inactive”.
In the case of `CCC(=O)C1(c2cccc(O)c2)CCN(C)CC1` [KETOBEMIDONE], the ED50 in the experiment listed under Mus musculus [6] came to 2.1; in [19], 70 nM; in experiment [21] it was 7 nM. Also, the Ratio in experiment [20] is 7.
In the case of `CN1CC[C@@H]2CC1Cc1ccc(O)cc12`, in the experiment with Monkey [9] (setting [31]), the ED50 stood at 4.5 mg/kg.
Consider `CC1C2Cc3ccc(O)cc3[C@]1(C)CCN2C` (stereo in doubt; form 1), for which the ED50 in the experiment on Monkey [9] is 0.1 mg/kg.
Consider `CN1CC[C@]23c4c5ccc(O)c4O[C@H]2[C@@H](O)C=C[C@H]3[C@H]1C5` [MORPHINE], for which the PDC entry with Monkey [22] is “Active”. For the same molecule, in the experiment with Monkey [9] (setting [31]), the ED50 stood at 1.2 mg/kg. In addition, the Antagonist potency result in the experiment with Monkey [23] was “inactive”.
For the molecule `CCCCN1CCC(C(=O)CC)(c2cccc(O)c2)CC1`, the Ratio in the experiment listed under Mus musculus [24] was determined as 12. Besides, the results for the ED50 in the experiment filed under Mus musculus [6], in the experiment filed under Mus musculus [7] and in the experiment filed under Mus musculus [25] were 4.6, 50 nM and 600 nM, respectively.
`CC1C2Cc3ccc(O)cc3[C@@H]1CCN2C` (stereo in doubt; form 1) returned an ED50 in the experiment on Monkey [9] of 1.1 mg/kg.
Consider `CCC[C@]12CCN(C)C(Cc3ccc(O)cc31)[C@@H]2C`, for which the PDC entry in the experiment with Monkey [16] and in the experiment with Monkey [22] was “high physical dependence capacity” throughout. The Antagonist potency entry with Monkey [17] was “inactive”.
As for `CN1CC[C@]2(C)CC1Cc1ccc(O)cc12` (stereo in doubt; form 1) [listing 1 of 2 here], the Antagonist potency entry with Monkey [17] was “inactive”. Also, in the experiment on Monkey [26], the PDC result was “no physical dependence capacity”.
For the molecule `CN1CC[C@]2(C)CC1Cc1ccc(O)cc12` (stereo in doubt; form 2), the ED50 in the experiment with Monkey [9] was determined as 3.2 mg/kg.
In the case of `CN1CC[C@]2(C)CC1Cc1ccc(O)cc12` (stereo in doubt; form 3) [listing 1 of 2 here], the PDC result in the experiment with Monkey [16] is “no physical dependence capacity”.
With `COc1ccc2c3c1O[C@H]1[C@@H](O)C=C[C@H]4[C@@H](C2)N(C)CC[C@@]341` [CODEINE], in the experiment on Monkey [9] (setting [31]), the ED50 is 7.5 mg/kg. In addition, the Antagonist potency entry with Monkey [17] is “inactive”. In the experiment on Monkey [18], the PDC entry is “Partially active”.
`CC[C@]12CCN(C)C(Cc3ccc(O)cc31)C2`: the PDC entry with Monkey [16] and with Monkey [27] was “low physical dependence capacity” throughout. Moreover, in the experiment on Monkey [17], the Antagonist potency result was “inactive”.
With `C[C@H]1C2Cc3ccc(O)cc3[C@]1(C)CCN2C`, the PDC entry with Monkey [16] is “no physical dependence capacity”. Further, the ED50 result in the experiment with Monkey [9] (Cercopithecidae) was “inactive”. The ED50 in the experiment on Monkey [9] (setting [31]) worked out at 0.6 mg/kg. In addition, the Antagonist potency entry in the experiment with Monkey [17] is “inactive”.
Regarding `CCCCCCN1CCC(C(=O)CC)(c2cccc(O)c2)CC1`, the figures for the ED50 in the experiment filed under Mus musculus [28], in the experiment filed under Mus musculus [6] and in the experiment filed under Mus musculus [7] were 40 nM, 7.5 and 20 nM, respectively. Further, the Ratio in the experiment filed under Mus musculus [4] worked out at 2.
Regarding `CCCCCCCCCCN1CCC(C(=O)CC)(c2cccc(O)c2)CC1`, in the experiment listed under Mus musculus [29], the Ratio amounted to 1.2. Further, the ED50 entry in the experiment listed under Mus musculus [1] is “inactive”. Besides, the ED50 in experiment [2] was found to be 500 nM; in experiment [30] it was 600 nM.
Consider `CN1CC[C@]2(C)CC1Cc1ccc(O)cc12` (stereo in doubt; form 3) [listing 2 of 2 here], for which the ED50 in the experiment on Monkey [9] amounted to 1.8 mg/kg.
In turn, `CN1CC[C@]2(C)CC1Cc1ccc(O)cc12` (stereo in doubt; form 1) [listing 2 of 2 here] registered an ED50 with Monkey [9] of 22.9 mg/kg.
For the molecule `CCCCCCCCN1CCC(C(=O)CC)(c2cccc(O)c2)CC1`, the ED50 in [2] came to 200 nM; in experiment [3], 200 nM; in the experiment listed under Mus musculus [13] it was 26500 nM. Moreover, the Ratio in the experiment listed under Mus musculus [4] turned out to be 1.
Regarding `CCCCCN1CCC(C(=O)CC)(c2cccc(O)c2)CC1`, the ED50 in the experiment filed under Mus musculus [28] worked out at 30 nM; in the experiment listed under Mus musculus [6], 0.78; in the experiment filed under Mus musculus [7], 8 nM. For the same molecule, the Ratio in the experiment filed under Mus musculus [4] is listed as 3.8.
The molecule `CC1C2Cc3ccc(O)cc3[C@]1(C)CCN2C` (stereo in doubt; form 2) showed an ED50 with Monkey [9] of 1.2 mg/kg.
